No end group written: not given here.

This is an account of results in US9365851B2, “Spalt-like transcription factor 4 (SALL4) and uses thereof” (National University of Singapore, priority 2011, dated 2016).

The test system of one data set is SALL4A and SALL4B. Nature of the data set: SALL4 knock-down in endometrial cancer cells (Western blot, qRT-PCR). Conditions: AN3CA and HEC-1A. It counts as cell-based, human. An excerpt: In brief, the expression plasmids for human SALL4A and SALL4B were constructed using FUW-Luc-mCh-puro vector (FIG. 43A). SALL4A or SALL4B mutant preserving the same amino acid sequence, but containing triple-point mutations within the SALL4shRNA1 target nucleotide sequence, which renders the transgenes resistant to SALL4 shRNA targeting, were generated using QuikChange site-directed mutagenesis kit (Stratagene) and confirmed by sequencing. Short hairpin RNAs set for human SALL4 in pLKO.1-puro vector were purchased from Open Biosystems (RHS3979) and knockdown efficiency was further evaluated. Two of them, designated as SALL4shRNA1 and SALL4shRNA 2, were selected for subsequent experiments. The sequences for SALL4 shRNAs and Scramble shRNA are listed as following: SALL4shRNA1: […] (SEQ ID NO: 3); SALL4shRNA 2: CTATTTAGCCAAAGGCAAA (SEQ ID NO: 2); Scr-shRNA: […] (SEQ ID NO: 14)
To assess the biological functional role of SALL4 in endometrial cancer, first evaluated was SALL4 expression in a panel of six endometrial cancer cell lines using quantitative real-time PCR to select for appropriate models for our functional studies (FIG. 40). […]
A general note: A western blot detects proteins with antibodies after separation by electrophoresis.

For a further data set, the system named is SNU398 cells. The following applies: after addition to cell culture plates.
The next data set concerns AN3CA cells. The data set is described as follows: In vivo metastasis assay (retro-orbital injection) in NOD/SCID mice. The following applies: 6 weeks after injection. The procedure:
All experimental procedures involving animals were conducted in accordance with the institutional guidelines set forth by the Children's Hospital Boston (CHB animal protocol number 11-09-2022). Eight to ten-week-old NOD/SCID mice were housed in a specific pathogen-free facility. To generate a xenograft mouse model, NOD/SCID mice were injected with 2×10^6 cells into right flanks. Cells were resuspended in 0.1 ml of PBS and then mix with 0.1 ml of matrigel. Two cell lines were prepared for xenografts: AN3CA and HEC-1A. Tumor sizes were measured weekly. As for metastasis mouse model, 1×10^6 AN3CA cells—were injected via the retro-orbital sinus as described previously (2). […] Cell proliferation in tumor was determined by staining histological sections with monoclonal antibody against Ki-67 (BD, Cat. No. 556003), and apoptosis was evaluated by terminal uridine deoxynucleotidyl transferase dUTP nick end labeling (TUNEL) assay (in situ cell death detection kit, Promega, Cat. No. G3250) according to manufacturer's protocol.
Next assessed was whether loss of SALL4 could affect tumor invasiveness. […] The invasive potential of these three cell lines in vitro: AN3CA, HEC-1A and Ishikawa cells was compared, and a strong association between SALL4 expression and invasive capacity was detected, with Ishikawa showing the least migration/invasion ability (data not shown). […]

Another data set concerns AML. Nature of the data set: Cellular uptake of FITC-labeled peptide. In kind it is cell-based, human. The following applies: with Chariot. As to the method:
(§1) Cells were grown typically in 6 well plates (35 mm dish) to 50-70% confluence. Usually the transfect ion efficiency is somehow cell type specific. 2 mM peptide was diluted 4 times in PBS (2 ul+6 ul) (For FITC peptidedo not dilute the 2 mM stock). For each transfection reaction tube with 100 ul PBS+1 ul diluted peptide was set up. Chariot reagent was diluted 1:10 in ddH2O and for each transfection a 94 ul H2O tube+6 ul diluted Chariot was prepared (No master mix for more than 4 transfections). The 2 tubes were carefully mixed by pipetting up and down and incubated 30 min. at room temperature. Medium was aspirated from the dish (well) and cells were overlay with the mix. 400 ul serum free medium was added and cells were incubated further for 1 h 37 C (cell incubator). 500 ul complete medium (with 10% serum) was finally added. If cells are not very sensitive to serum starvation (cancer cell lines) 5% serum could be used.
(§2) Fluorescent and Confocal microscopy was performed on cells treated with FITC labeled peptides with or without of transfection reagent depending on the cell type. Cells were mounted on cover slips using mounting media with DAPI (Invitrogen) and in some cases cytoskeleton dye (Invitrogen).
(§3) In order to evaluate their cellular uptake and localization, the N terminus of these peptides was labeled with fluorescein isothiocyanate (FITC). Despite the net positive charge of these peptides, their uptake by the cells is cell-type specific. Some cell lines such as HL-60 (an AML cell line) allowed the peptide to enter the cells without any modification or carrier, and some cell lines were not penetrable at all. In order to achieve a similar level of peptide delivery in most cell types, a Chariot Transfection Reagent (Active Motif) was used as a peptide carrier, as directed from the manufacturer. All cell types used in the study described herein were subjected to individual evaluation of the percentage of the cells in which the peptide was delivered as well as the duration of time during which they sustained the labeled peptide in the cells. After Chariot treatment, confocal microscopy studies confirmed uptake of these peptides throughout the cell, including nuclei (as evidenced by DAPI overlay, FIG. 1B).

Another data set has as its system HL60. Nature of the data set: Cellular uptake of FITC-labeled peptide. It counts as cell-based, human. The following applies: HL60, no carrier. The procedure:
as §1, §2, §3

The test system of another data set is HuH-7. The data set is described as follows: Cellular uptake of FITC-labeled peptide. The following applies: HuH-7, with Chariot. It counts as cell-based, human. The procedure:
as §1, §2, §3

The next data set relates to SNU387. The data set is described as follows: Cellular uptake of FITC-labeled peptide. Conditions: SNU387, with Chariot. In kind it is cell-based, human. The procedure: as §1, §2, §3
The next data set relates to SNU-398. Nature of the data set: Cellular uptake of FITC-labeled peptide. In kind it is cell-based, human. The following applies: SNU-398, with Chariot. As to the method:
as §1, §2, §3
Next tested was the cellular uptake and localization of these peptides in various types of cells using FITC-labeled wild type or scrambled peptides. Despite the net positive charge of these peptides, their penetration into cells is cell type-specific. Some cell lines, such as HL-60 (an AML cell line), allowed peptide entry without any modification or facilitator, while others such as SNU-398 were not penetrable at all. […] The overall success rate of peptide uptake by the cells was above 95% with Pep-1, as evaluated by flow cytometry (FIG. 9A). […]

In a further data set the test system is AML3. The data set is described as follows: Cellular uptake of FITC-labeled peptide. In kind it is cell-based. Conditions: AML3, no carrier. As to the method:
as §1, §2, §3

The test system of another data set is CD34+. Nature of the data set: Cellular uptake of FITC-labeled peptide. The following applies: with Chariot. It counts as cell-based. The procedure:
as §1, §2, §3

The next data set relates to KG1a. The data set is described as follows: Cellular uptake of FITC-labeled peptide. The following applies: no carrier. In kind it is cell-based. The procedure: as §1, §2, §3
The subject of another data set is MCF7. The data set is described as follows: Cellular uptake of FITC-labeled peptide. In kind it is cell-based. Conditions: MCF7, with Chariot. As to the method: as §1, §2, §3

Excerpt for SNU398 cells: Confocal microscopy was next used to study cellular uptake of TAT-WT by SNU398 cells in vitro.

Turning to “GCCTTGAAACAAGCCAAGCTA (expressed or natural sequence) [SALL4-sh1]”, the “down-regulation of SALL4A and SALL4B” value in the data set on SALL4A and SALL4B is “could down-regulate SALL4A and SALL4B efficiently”.

Regarding “YGRKKRRQRRRMSRRKQAKPHI [TAT-WT, NH2-YGRKKRRQRRR-MSRRKQAKPHI-COOH]”, the “time to localization within the nucleus” value with SNU398 cells is not above 15 min.

Take CCTAAGGTTAAGTCGCCCTCG [scramble shRNA]: the metastatic tumor formation entry in the data set on AN3CA cells is “Four out of five”.

Take “MSRRAQAKPQHI [Mut peptide, MSRRAQAKPQHI, reference compound]”: the “peptide uptake (cells with peptide)” value in the data set on AML is recorded as 50% (Ch); in the data set on HL60 it was approximately 50%; with HuH-7, 60% (ch); in the data set with SNU387, 60% (Ch); in the data set with SNU-398, 60% (Ch); in the data set on AML3, approximately 10%. For the same sequence, the figures for the “peptide uptake (cells with peptide)” value in the data set on CD34+, with KG1a and with MCF7 were 50% (Ch), more than 15% and 70% (Ch), respectively.
